The target in this assay is IRAK4 (Homo sapiens (Human), UniProt Q9NWZ3). Description: IRAK4 Kinase Assay (IMAP fluorescence polarization). Format: biochemical. The following applies: 0.5 nM GST tagged IRAK4, 100 μM ATP, 30 minutes at 25° C., IMAP FP. The protocol:
The kinase activity of IRAK4 is determined by its ability to catalyze the phosphorylation of a fluorescent polypeptide substrate. The extent of phosphorylation is measured using the IMAP technology (Molecular Devices) where the phosphorylated fluorescent substrate binds to the large M (III)-based nanoparticles which reduces the rotational speed of the substrate and thus increases its fluorescent polarization (FP).
20 μL reaction mixture contains 10 mM TriHCl, pH 7.2, 0.5 nM GST tagged IRAK4 (SignalChem), 100 nM fluorescent peptide substrate (RP7030, Molecular Devices), 100 μM ATP, 1 mM DDT, 1 mM MgCl2, and 0.01% Tween 20. The reaction is initiated by the addition of ATP. After incubation for 30 minutes at 25° C., 60 μL of Progressive IMAP Reagent (Molecular Devices) is added to stop the reaction. Change in RP7030's FP is determined by a FP reader (Analyst HT, LJL BioSystems).
(In general: In fluorescence polarisation assays a small probe gives low polarisation when free and higher when bound to something large.)

The structures appear in SMILES notation. Counter-ions that a name gives are not always drawn.

Chain of IRAK4 (Q9NWZ3 whole entry): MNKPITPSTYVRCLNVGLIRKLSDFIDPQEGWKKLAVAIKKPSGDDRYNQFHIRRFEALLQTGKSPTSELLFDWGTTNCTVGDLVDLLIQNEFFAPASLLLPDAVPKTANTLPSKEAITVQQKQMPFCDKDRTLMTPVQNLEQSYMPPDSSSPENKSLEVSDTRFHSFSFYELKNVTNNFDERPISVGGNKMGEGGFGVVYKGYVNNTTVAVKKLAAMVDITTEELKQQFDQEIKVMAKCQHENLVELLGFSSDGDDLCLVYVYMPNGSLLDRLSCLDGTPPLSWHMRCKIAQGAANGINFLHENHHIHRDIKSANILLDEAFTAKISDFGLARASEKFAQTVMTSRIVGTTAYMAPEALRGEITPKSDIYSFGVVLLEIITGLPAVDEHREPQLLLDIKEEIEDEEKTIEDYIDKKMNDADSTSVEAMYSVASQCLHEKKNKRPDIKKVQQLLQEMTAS

As to `N#Cc1ccccc1NC(=O)c1ccc2ccc(N[C@@H]3CCCC(F)(F)[C@@H]3N)nn12` [Example 110, 2-{[(1R,2R)-2-amino-3,3-difluorocyclohexyl]amino}-N-(2-cyanophenyl)pyrrolo [1,2-b]pyridazine-7-carboxamide trifluoroacetate], half-maximal inhibition (IC50) required 825 nM.

Turning to `N#Cc1ccccc1NC(=O)c1ccc2ccc(N3CCNCC3)nn12` [Example 101, N-(2-cyanophenyl)-2-piperazin-1-ylpyrrolo[1,2-b]pyridazine-7-carboxamide trifluoroacetate], the concentration for half-maximal inhibition (IC50) (as a rule, the midpoint of a concentration-inhibition curve) stood at 574 nM. `Cn1cc(NC(=O)c2ccc3ccc(N4CCNCC5(CC5)C4)nn23)c(C(F)(F)F)n1` [Example 9, 2-(5,8-diazaspiro[2.6]non-5-yl)-N-[1-methyl-3-(trifluoromethyl)-1H-pyrazol-4-yl]pyrrolo[1,2-b]pyridazine-7-carboxamide trifluoroacetate]: the IC50 stood at 27 nM. As to `N#Cc1ccccc1NC(=O)c1ccc2ccc(N3CCC[C@@H](N)C3)nn12` [Example 107, 2-[(3R)-3-aminopiperidin-1-yl]-N-(2-cyanophenyl) pyrrolo[1,2-b]pyridazine-7-carboxamide trifluoroacetate], the IC50 came out at 26 nM. Turning to `Cn1cc(NC(=O)c2ccc3ccc(N4CC5CCC4CN5)nn23)c(C(F)F)n1` (stereo not shown) [Example 17, 2-(2,5-diazabicyclo[2.2.2]oct-2-yl)-N-[3-(difluoromethyl)-1-methyl-1H-pyrazol-4-yl]pyrrolo[1,2-b]pyridazine-7-carboxamide trifluoroacetate], it took 4 nM to reach half-maximal inhibition (IC50). In turn, `O=C(Nc1cscc1Cl)c1ccc2ccc(N3C[C@@H]4CC[C@H]3CN4)nn12` (single isomer, unassigned) [Example 83, N-(4-chlorothiophen-3-yl)-2-[(1S,4S)- or (1R,4R)-2,5-diazabicyclo[2.2.2]oct-2-yl]pyrrolo[1,2-b]pyridazine-7-carboxamide trifluoroacetate] returned a half-maximal inhibitory concentration (IC50) of 188 nM. For `Cn1cc(NC(=O)c2ccc3ccc(N[C@@H]4CCCC(F)(F)[C@@H]4N)nn23)c(Br)n1` [Example 32, 2-{[(1R,2R)-2-amino-3,3-difluoro-cyclohexyl]amino}-N-(3-bromo-1-methyl-1H-pyrazol-4-yl)pyrrolo[1,2-b]pyridazine-7-carboxamide trifluoroacetate] the value was 275 nM; for `N[C@H]1CCCC[C@H]1Nc1ccc2ccc(C(=O)Nc3ccsc3Br)n2n1` [Example 77, 2-{[(1R,2S)-2-aminocyclohexyl]amino}-N-(2-bromothiophen-3-yl)pyrrolo[1,2-b]pyridazine-7-carboxamide trifluoroacetate], 11 nM; for `Cn1cc(NC(=O)c2ccc3ccc(N[C@@H]4CCCC[C@@H]4O)nn23)c(Cl)n1` [Example 53, N-(3-chloro-1-methyl-1H-pyrazol-4-yl)-2-{[(1R,2S)-2-hydroxycyclohexyl]amino}pyrrolo[1,2-b]pyridazine-7-carboxamide trifluoroacetate], 55 nM. For `Cn1cc(NC(=O)c2ccc3ccc(N4CCC[C@@H](N)C4)nn23)c(C(F)(F)F)n1` [Example 12, 2-[(3R)-3-aminopiperidin-1-yl]-N-[1-methyl-3-(trifluoromethyl)-1H-pyrazol-4-yl]pyrrolo[1,2-b]pyridazine-7-carboxamide trifluoroacetate] the value was 0.5 nM; for `N#Cc1cscc1NC(=O)c1ccc2ccc(N3CC4CCC3CN4)nn12` (stereo not shown) [Example 74, N-(4-cyanothiophen-3-yl)-2-(2,5-diazabicyclo[2.2.2]oct-2-yl)pyrrolo[1,2-b]pyridazine-7-carboxamide trifluoroacetate], 134 nM; for `Cn1cc(NC(=O)c2ccc3ccc(N4CCCNCC4)nn23)c(C(F)(F)F)n1` [Example 10, 2-(1,4-diazepan-1-yl)-N-[1-methyl-3-(trifluoromethyl)-1H-pyrazol-4-yl]pyrrolo[1,2-b]pyridazine-7-carboxamide trifluoroacetate], 33 nM.

Take `N[C@@H]1[C@H](Nc2ccc3ccc(C(=O)Nc4cscc4Cl)n3n2)CCCC1(F)F` [Example 87, 2-{[(1R,2R)-2-amino-3,3-difluoro-cyclohexyl]amino}-N-(4-chlorothiophen-3-yl)pyrrolo[1,2-b]pyridazine-7-carboxamide acetate]: it took 2170 nM to reach half-maximal inhibition (IC50). For `Cn1cc(NC(=O)c2ccc3ccc(N4C[C@@H]5CNC[C@H]4C5)nn23)c(C(F)(F)F)n1` [Example 122, 2-[(1S,5R)-(1R,5S)-3,6-diazabicyclo[3.2.1]oct-6-yl]-N-[1-methyl-3-(trifluoromethyl)-1H-pyrazol-4-yl]pyrrolo[1,2-b]pyridazine-7-carboxamide] the value was 39 nM; for `N[C@@H]1[C@H](Nc2ccc3ccc(C(=O)Nc4cscc4C(F)F)n3n2)CCCC1(F)F` [Example 96, 2-{[(1R,2R)-2-amino-3,3-difluoro-cyclohexyl]amino}-N-[4-(difluoro-methyl)thiophen-3-yl]pyrrolo[1,2-b]pyridazine-7-carboxamide trifluoroacetate], 753 nM.

For `N[C@@H]1[C@H](Nc2ccc3ccc(C(=O)Nc4cscc4Br)n3n2)CCCC1(F)F` [Example 88, 2-{[(1R,2R)-2-amino-3,3-difluoro-cyclohexyl]amino}-N-(4-bromothiophen-3-yl)pyrrolo[1,2-b]pyridazine-7-carboxamide trifluoroacetate], the IC50 came to 6160 nM. For the compound `N[C@@H]1[C@H](Nc2ccc3ccc(C(=O)Nc4ccsc4Br)n3n2)CCCC1(F)F` [Example 86, 2-{[(1R,2R)-2-amino-3,3-difluoro-cyclohexyl]amino}-N-(2-bromothiophen-3-yl)pyrrolo[1,2-b]pyridazine-7-carboxamide trifluoroacetate], the IC50 was 5240 nM.

Compound `Cn1cc(NC(=O)c2ccc3ccc(N[C@@H]4CCCNC4)nn23)c(C(F)(F)F)n1` [Example 6, N-[1-methyl-3-(trifluoromethyl)-1H-pyrazol-4-yl]-2-[(3R)-piperidin-3-ylamino]pyrrolo[1,2-b]pyridazine-7-carboxamide trifluoroacetate] came in with a half-inhibitory concentration (IC50) of 1 nM. For `N[C@H]1CCCC[C@H]1Nc1ccc2ccc(C(=O)Nc3ccsc3C(F)(F)F)n2n1` [Example 116, 2-{[1R,2S)-2-aminocyclohexyl] amino}-N-[2-(trifluoromethyl) thiophen-3-yl] pyrrolo[1,2-b]pyridazine-7-carboxamide trifluoroacetate] the value was 221 nM; for `Cn1cc(NC(=O)c2ccc3ccc(N[C@@H]4CCCC[C@@H]4N)nn23)c(Cl)n1` [Example 25, 2-{[(1R,2S)-2-aminocyclohexyl]amino}-N-(3-chloro-1-methyl-1H-pyrazol-4-yl)pyrrolo[1,2-b]pyridazine-7-carboxamide trifluoroacetate], 1 nM. For `Cn1cc(NC(=O)c2ccc3ccc(N4CCC[C@@H](N)C4)nn23)c(C(F)F)n1` [Example 13, 2-[(3R)-3-aminopiperidin-1-yl]-N-[3-(difluoromethyl)-1-methyl-1H-pyrazol-4-yl]pyrrolo[1,2-b]pyridazine-7-carboxamide trifluoroacetate] the value was 0.5 nM; for `Cn1cc(NC(=O)c2ccc3ccc(N4CC5CCC4CN5)nn23)c(C#N)n1` (stereo not shown) [Example 31, N-(3-cyano-1-methyl-1H-pyrazol-4-yl)-2-(2,5-diazabicyclo[2.2.2]oct-2-yl)pyrrolo[1,2-b]pyridazine-7-carboxamide trifluoroacetate], 25 nM. For `Cn1cc(NC(=O)c2ccc3ccc(N[C@@H]4CCCC[C@@H]4N)nn23)c(C(F)(F)F)n1` [Example 1, 2-(((1R,2S)-2-Aminocyclohexyl)amino)-N-(1-methyl-3-(trifluoromethyl)-1H-pyrazol-4-yl)pyrrolo[1,2-b]pyridazine-7-carboxamide] the value was 5 nM; for `N[C@H]1CCCC[C@H]1Nc1ccc2ccc(C(=O)Nc3ccsc3Cl)n2n1` [Example 71, 2-{[(1R,2S)-2-aminocyclohexyl]amino}-N-(2-chlorothiophen-3-yl)pyrrolo[1,2-b]pyridazine-7-carboxamide trifluoroacetate], 4 nM; for `O=C(Nc1cscc1Cl)c1ccc2ccc(N3C[C@H]4CC[C@@H]3CN4)nn12` (single isomer, unassigned) [Example 84, N-(4-chlorothiophen-3-yl)-2-[(1S,4S)- or (1R,4R)-2,5-diazabicyclo[2.2.2]oct-2-yl]pyrrolo[1,2-b]pyridazine-7-carboxamide trifluoroacetate], 126 nM. As for `O=C(Nc1ccsc1Br)c1ccc2ccc(N3C[C@H]4CC[C@@H]3CN4)nn12` (single isomer, unassigned) [Example 79, N-(2-bromothiophen-3-yl)-2-[(1S,4S)- or (1R,4R)-2,5-diazabicyclo[2.2.2]oct-2-yl]pyrrolo[1,2-b]pyridazine-7-carboxamide trifluoroacetate], inhibition was half-maximal at 192 nM (IC50). For `O=C(Nc1cscc1Br)c1ccc2ccc(N3CCCNCC3)nn12` [Example 60, N-(4-bromothiophen-3-yl)-2-(1,4-diazepan-1-yl)pyrrolo[1,2-b]pyridazine-7-carboxamide trifluoroacetate] the value was 548 nM; for `O=C(Nc1cscc1Cl)c1ccc2ccc(N3CCCNCC3)nn12` [Example 82, N-(4-chlorothiophen-3-yl)-2-(1,4-diazepan-1-yl)pyrrolo[1,2-b]pyridazine-7-carboxamide trifluoroacetate], 308 nM.
